Values quoted from earlier work in patent US20150177227A1, “CELLULAR AND ANIMAL MODELS FOR SCREENING THERAPEUTIC AGENTS FOR THE TREATMENT OF ALZHEIMER'S DISEASE” (priority 2012, published 2015).

Columns and labels:
[1] = system: Alzheimer's disease
[2] = system: plaque; details: in vivo

Question: For “solanezumab: humanized antibody from Eli Lilly & Co. shown to clear plaque”, which “benefit trend in phase II clinical trials” value [1] is on record?
Answer: neither antibody showed any trend

Question: And the plaque clearance [2]?
Answer: clear plaque
